What was measured:
[1] = molecular target: RAF1 (Homo sapiens, UniProt P04049); assay: KINOMEscan competition binding, single dose […]; details: read-out: % of control at 1 μM
[2] = molecular target: AURKC (Homo sapiens, UniProt Q9UQB9); assay: biochemical; parameters: KINOMEscan active-site-directed competition binding panel, 468 kinases, percent of DMSO control at 1 uM; details: KINOMEscan binding, percent of DMSO control; read-out: Ctrl%
[3] = molecular target: TYRO3 (Homo sapiens, UniProt Q06418); assay: biochemical; parameters: KINOMEscan active-site-directed competition binding panel, 468 kinases, percent of DMSO control at 1 uM; details: KINOMEscan binding, percent of DMSO control; read-out: Ctrl%
TYRO3, sequence (Q06418 whole entry): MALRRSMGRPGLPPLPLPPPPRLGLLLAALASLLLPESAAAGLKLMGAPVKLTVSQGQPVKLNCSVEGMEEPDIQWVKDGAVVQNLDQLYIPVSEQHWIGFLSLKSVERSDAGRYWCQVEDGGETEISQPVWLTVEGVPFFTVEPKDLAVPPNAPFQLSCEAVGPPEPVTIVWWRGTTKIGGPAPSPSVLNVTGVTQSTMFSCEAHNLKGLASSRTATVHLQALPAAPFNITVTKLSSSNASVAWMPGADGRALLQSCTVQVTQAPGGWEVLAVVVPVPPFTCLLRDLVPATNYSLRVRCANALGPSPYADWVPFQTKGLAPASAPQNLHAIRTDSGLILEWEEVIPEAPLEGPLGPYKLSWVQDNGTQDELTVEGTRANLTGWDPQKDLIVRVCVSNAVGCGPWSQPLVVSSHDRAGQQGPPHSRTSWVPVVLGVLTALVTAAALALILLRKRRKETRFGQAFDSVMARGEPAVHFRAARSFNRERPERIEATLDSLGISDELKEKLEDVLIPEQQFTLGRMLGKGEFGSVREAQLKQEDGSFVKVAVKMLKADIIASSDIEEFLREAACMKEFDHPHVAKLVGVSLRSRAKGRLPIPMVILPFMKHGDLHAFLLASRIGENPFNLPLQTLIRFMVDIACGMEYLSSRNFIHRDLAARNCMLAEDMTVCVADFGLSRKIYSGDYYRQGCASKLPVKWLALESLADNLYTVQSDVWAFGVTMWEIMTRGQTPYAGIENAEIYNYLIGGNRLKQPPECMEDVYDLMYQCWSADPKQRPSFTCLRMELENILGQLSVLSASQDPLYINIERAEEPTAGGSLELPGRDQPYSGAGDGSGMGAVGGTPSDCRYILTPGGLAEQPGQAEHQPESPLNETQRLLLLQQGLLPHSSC

[4] = molecular target: CAMK1 (Homo sapiens, UniProt Q14012); assay: biochemical; parameters: KINOMEscan active-site-directed competition binding panel, 468 kinases, percent of DMSO control at 1 uM; details: KINOMEscan binding, percent of DMSO control; read-out: Ctrl%
CAMK1, sequence (Q14012 whole entry): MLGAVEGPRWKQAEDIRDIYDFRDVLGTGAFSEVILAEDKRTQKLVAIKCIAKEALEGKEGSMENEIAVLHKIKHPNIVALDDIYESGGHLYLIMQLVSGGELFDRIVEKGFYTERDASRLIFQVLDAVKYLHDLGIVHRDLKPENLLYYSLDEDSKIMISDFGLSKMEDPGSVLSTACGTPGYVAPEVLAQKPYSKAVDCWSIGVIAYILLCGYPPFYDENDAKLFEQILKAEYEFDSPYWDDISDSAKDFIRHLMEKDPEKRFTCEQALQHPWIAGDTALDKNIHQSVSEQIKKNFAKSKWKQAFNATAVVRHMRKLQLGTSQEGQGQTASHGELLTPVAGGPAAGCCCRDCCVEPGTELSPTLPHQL

[5] = molecular target: FGFR2 (Homo sapiens, UniProt P21802); assay: biochemical; parameters: KINOMEscan active-site-directed competition binding panel, 468 kinases, percent of DMSO control at 1 uM; details: KINOMEscan binding, percent of DMSO control; read-out: Ctrl%
[6] = molecular target: T1, YANK2 (Homo sapiens, UniProt Q9NY57); assay: biochemical; parameters: KINOMEscan active-site-directed competition binding panel, 468 kinases, percent of DMSO control at 1 uM; details: KINOMEscan binding, percent of DMSO control; read-out: Ctrl%
T1 construct: gene STK32B

[7] = molecular target: SRPK3 (Homo sapiens, UniProt Q9UPE1); assay: biochemical; parameters: KINOMEscan active-site-directed competition binding panel, 468 kinases, percent of DMSO control at 1 uM; details: KINOMEscan binding, percent of DMSO control; read-out: Ctrl%
SRPK3, sequence (Q9UPE1 whole entry): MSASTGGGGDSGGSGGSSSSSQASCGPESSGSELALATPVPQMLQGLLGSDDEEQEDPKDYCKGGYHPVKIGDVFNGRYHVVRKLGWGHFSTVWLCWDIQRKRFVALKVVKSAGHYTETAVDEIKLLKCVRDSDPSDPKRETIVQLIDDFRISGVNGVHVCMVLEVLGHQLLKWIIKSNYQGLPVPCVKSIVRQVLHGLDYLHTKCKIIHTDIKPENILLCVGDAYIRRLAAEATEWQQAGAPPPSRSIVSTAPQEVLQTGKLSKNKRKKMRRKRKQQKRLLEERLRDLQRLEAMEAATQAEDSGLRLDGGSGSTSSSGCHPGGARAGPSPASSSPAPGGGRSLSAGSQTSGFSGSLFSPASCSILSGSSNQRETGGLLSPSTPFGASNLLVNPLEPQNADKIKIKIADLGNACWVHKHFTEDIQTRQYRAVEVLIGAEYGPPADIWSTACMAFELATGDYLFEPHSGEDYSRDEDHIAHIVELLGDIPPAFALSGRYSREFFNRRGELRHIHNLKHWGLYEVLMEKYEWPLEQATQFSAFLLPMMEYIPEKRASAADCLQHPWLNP

[8] = molecular target: T2, TRKC (Homo sapiens, UniProt Q16288); assay: biochemical; parameters: KINOMEscan active-site-directed competition binding panel, 468 kinases, percent of DMSO control at 1 uM; details: KINOMEscan binding, percent of DMSO control; read-out: Ctrl%
T2 construct: gene NTRK3
T2 sequence (Q16288 whole entry): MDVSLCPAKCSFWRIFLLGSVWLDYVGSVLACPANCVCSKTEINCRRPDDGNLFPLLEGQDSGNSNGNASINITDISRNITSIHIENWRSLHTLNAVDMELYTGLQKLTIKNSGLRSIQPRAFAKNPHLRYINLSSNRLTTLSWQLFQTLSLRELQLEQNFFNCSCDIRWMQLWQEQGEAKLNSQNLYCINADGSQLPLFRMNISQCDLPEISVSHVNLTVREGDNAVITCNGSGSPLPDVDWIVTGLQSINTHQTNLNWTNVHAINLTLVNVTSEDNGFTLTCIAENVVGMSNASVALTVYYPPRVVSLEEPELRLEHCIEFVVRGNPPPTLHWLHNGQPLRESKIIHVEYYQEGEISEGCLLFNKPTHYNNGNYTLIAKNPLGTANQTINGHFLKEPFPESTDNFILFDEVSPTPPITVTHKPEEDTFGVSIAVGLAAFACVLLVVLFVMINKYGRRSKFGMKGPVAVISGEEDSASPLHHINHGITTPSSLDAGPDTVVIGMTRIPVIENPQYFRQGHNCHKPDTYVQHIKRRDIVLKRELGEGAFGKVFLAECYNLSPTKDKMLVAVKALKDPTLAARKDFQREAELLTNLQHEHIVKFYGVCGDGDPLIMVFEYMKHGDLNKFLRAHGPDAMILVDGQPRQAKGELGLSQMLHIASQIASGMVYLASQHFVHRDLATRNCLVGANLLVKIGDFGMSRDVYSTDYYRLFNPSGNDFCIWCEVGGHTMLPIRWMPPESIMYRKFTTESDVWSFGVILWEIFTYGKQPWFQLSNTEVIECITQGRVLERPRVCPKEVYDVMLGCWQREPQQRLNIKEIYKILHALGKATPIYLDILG

[9] = molecular target: IGF1R (Homo sapiens, UniProt P08069); assay: biochemical; parameters: KINOMEscan active-site-directed competition binding panel, 468 kinases, percent of DMSO control at 1 uM; details: KINOMEscan binding, percent of DMSO control; read-out: Ctrl%
IGF1R, sequence (P08069 whole entry): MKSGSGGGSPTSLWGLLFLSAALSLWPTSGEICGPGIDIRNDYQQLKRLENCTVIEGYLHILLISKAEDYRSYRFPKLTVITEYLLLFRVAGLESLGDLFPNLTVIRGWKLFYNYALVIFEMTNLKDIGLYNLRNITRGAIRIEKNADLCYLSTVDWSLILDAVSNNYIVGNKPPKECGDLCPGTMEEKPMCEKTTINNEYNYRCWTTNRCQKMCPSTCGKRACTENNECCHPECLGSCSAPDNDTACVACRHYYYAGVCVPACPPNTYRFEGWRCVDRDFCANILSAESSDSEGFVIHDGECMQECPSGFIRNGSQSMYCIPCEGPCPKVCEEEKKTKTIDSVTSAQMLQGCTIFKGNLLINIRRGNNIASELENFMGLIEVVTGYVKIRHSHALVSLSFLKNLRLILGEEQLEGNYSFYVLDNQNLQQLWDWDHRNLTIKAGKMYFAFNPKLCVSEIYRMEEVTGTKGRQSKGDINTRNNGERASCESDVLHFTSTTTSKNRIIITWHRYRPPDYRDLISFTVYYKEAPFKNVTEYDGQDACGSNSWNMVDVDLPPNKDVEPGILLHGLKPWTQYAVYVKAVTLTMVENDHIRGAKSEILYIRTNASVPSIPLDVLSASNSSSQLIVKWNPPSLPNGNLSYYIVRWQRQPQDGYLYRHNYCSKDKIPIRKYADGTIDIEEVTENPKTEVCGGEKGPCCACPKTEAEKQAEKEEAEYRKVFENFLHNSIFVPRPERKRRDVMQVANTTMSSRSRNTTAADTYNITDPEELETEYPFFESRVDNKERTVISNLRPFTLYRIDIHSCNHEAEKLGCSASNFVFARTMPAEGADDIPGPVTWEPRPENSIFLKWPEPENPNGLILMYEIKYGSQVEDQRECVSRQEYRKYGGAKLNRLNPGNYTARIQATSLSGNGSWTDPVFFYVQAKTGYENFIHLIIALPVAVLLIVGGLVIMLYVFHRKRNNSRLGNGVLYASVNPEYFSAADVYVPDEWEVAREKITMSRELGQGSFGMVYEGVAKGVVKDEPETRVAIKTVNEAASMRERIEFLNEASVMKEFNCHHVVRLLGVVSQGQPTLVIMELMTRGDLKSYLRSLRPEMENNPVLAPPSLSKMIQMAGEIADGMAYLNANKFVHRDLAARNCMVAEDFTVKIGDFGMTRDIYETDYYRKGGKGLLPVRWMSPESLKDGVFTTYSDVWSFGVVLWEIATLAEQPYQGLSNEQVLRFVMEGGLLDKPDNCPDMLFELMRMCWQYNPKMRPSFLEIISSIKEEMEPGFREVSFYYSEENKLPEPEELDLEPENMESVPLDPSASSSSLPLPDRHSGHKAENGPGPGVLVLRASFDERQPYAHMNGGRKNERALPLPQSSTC

[10] = molecular target: PRKCD (Homo sapiens, UniProt Q05655); assay: biochemical; parameters: KINOMEscan active-site-directed competition binding panel, 468 kinases, percent of DMSO control at 1 uM; details: KINOMEscan binding, percent of DMSO control; read-out: Ctrl%

AURKC, sequence (Q9UQB9 whole entry): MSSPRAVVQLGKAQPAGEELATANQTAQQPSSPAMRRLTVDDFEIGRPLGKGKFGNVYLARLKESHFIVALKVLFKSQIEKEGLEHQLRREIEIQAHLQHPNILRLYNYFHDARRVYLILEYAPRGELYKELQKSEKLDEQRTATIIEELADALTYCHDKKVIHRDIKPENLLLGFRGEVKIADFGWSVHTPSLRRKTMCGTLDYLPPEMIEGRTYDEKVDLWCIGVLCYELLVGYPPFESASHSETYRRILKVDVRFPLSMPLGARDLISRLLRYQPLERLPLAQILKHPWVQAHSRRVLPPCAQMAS
RAF1, sequence (P04049 whole entry): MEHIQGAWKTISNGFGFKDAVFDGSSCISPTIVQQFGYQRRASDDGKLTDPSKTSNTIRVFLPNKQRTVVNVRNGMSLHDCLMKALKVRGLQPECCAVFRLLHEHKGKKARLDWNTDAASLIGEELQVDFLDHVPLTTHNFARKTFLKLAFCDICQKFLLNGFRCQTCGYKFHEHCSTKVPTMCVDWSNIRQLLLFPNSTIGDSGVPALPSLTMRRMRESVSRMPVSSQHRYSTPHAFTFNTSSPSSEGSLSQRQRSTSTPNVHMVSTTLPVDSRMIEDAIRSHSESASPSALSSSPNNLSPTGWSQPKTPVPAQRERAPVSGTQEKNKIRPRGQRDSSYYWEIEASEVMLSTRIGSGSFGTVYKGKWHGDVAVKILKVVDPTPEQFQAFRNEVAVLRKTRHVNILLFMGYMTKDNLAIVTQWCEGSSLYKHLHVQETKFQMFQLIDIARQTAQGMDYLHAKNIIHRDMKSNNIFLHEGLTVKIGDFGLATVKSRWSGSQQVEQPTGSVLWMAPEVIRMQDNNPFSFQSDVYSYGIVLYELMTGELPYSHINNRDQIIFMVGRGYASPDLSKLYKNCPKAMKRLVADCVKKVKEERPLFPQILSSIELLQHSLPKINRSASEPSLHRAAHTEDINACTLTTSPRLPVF

Cc1ccc(NC(=O)c2cccc(C(F)(F)F)c2)cc1Nc1cc(-c2cccnc2)nc2[nH]ccc12 [HZX-02-059]
remaining binding at 1 µM [1]: 0.95%
remaining binding at 1 µM [2]: 75%
remaining binding at 1 µM [3]: 100%
remaining binding at 1 µM [4]: 100%
remaining binding at 1 µM [5]: 95%
remaining binding at 1 µM [6]: 100%
remaining binding at 1 µM [7]: 93%
remaining binding at 1 µM [8]: 100%
remaining binding at 1 µM [9]: 92%
remaining binding at 1 µM [10]: 96%

From publication PMC8799717, “Pharmacological targeting PIKfyve and tubulin as an effective treatment strategy for double-hit lymphoma” (Cell Death Discovery, 2022)
